The target of this assay is T1, human V1aR (Homo sapiens, UniProt P37288).
T1 construct: expressed in transfected cells
In words: Agonist activity at vasopressin V1a receptors, cell-based FLIPR calcium assay. The settings on record: for Emax: read-out: Efficacy Avg. (%). Put shortly: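 HEK Flp-In cells stably expressing human V1aR were loaded with Calcium 4 dye plus 2.5 mM probenecid for 1 h at 37 °C, then given half-log compound concentrations (final 0.1% DMSO) on FLIPR Tetra.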

Starred links: 1 amine or outer side, 2 acyl side, 3 side chain; linkers in the order of their positions; H or OH if unused. Positions of bridges follow the written chain, without caps; N, C: chain ends. Non-standard residues stand in square brackets, D forms with d. Residues, ends and D or L forms follow the SMILES beside them. Chains are numbered I, II in the order given. *: point of attachment. d(isoGln) = NC(=O)[C@@H](CCC(=O)[*:2])N[*:1]; isoGln = NC(=O)[C@H](CCC(=O)[*:2])N[*:1]; d(εLys) = N[C@H](CCCCN[*:1])C(=O)[*:2]; X1 = N[C@@H](CCC(=O)[*:2])C(=O)[*:1]; X4 = N[C@H](CCC(=O)[*:2])C(=O)[*:1]; Aad = N[C@@H](CCCC(=O)O)C(=O)O; Dab = NCC[C@H](N)C(=O)O; PhAc = O=C(Cc1ccccc1)*

T1 sequence (P37288 whole entry): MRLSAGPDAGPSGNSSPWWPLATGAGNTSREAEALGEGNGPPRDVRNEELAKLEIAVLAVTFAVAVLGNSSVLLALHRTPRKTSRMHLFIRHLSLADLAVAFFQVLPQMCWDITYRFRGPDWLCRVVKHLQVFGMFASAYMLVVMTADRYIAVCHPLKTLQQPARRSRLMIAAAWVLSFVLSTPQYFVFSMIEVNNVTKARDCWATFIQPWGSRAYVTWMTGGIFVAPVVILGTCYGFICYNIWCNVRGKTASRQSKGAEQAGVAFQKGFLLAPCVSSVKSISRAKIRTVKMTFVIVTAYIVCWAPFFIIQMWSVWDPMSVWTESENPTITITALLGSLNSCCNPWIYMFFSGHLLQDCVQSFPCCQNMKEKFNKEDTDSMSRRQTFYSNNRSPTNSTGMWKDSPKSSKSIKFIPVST

For orientation: EC50 means the concentration needed to bring the measured effect to its halfway point. With `CC[C@H](C)[C@@H]1NC(=O)[C@H](Cc2ccccc2)NC(=O)[C@@H](N)CSSC[C@@H](C(=O)N2CCC[C@H]2C(=O)N[C@@H](CCNC(=O)[C@H](N)CCCCNC(=O)[C@H](CCCCNC(C)=O)NC(=O)CC[C@H](NC(=O)[C@H](CCCNC(=N)N)NC(=O)[C@@H]2CCCN2C(=O)[C@H](C)NC(=O)[C@H](CC(N)=O)NC(=O)[C@H](CCC(N)=O)NC(=O)[C@H](Cc2ccccc2)NC(=O)[C@@H](Cc2ccc(OC)cc2)NC(=O)Cc2ccccc2)C(N)=O)C(=O)NCC(N)=O)NC(=O)[C@H](CC(N)=O)NC(=O)[C@H](CCCC(N)=O)NC1=O` [Compound 58] (I: H-CFI[Aad](NH2)NCP[Dab]G-NH2 / II: PhAc-[dY](Me)FQNAPR[isoGln]K(Ac)[d(εLys)]; disulfide I:1-I:6; amide I:8-II:C), the EC50 was found to be 2.6 nM and the Emax is 26%.
Turning to `CC[C@H](C)[C@@H]1NC(=O)[C@H](Cc2ccccc2)NC(=O)[C@@H](N)CSSC[C@@H](C(=O)N2CCC[C@H]2C(=O)N[C@@H](CCNC(=O)[C@H](N)CCCCNC(=O)CC[C@H](NC(=O)[C@H](CCCNC(=N)N)NC(=O)[C@@H]2CCCN2C(=O)[C@H](CCN)NC(=O)[C@H](CC(N)=O)NC(=O)[C@H](CCC(N)=O)NC(=O)[C@H](Cc2ccccc2)NC(=O)[C@@H](Cc2ccc(OC)cc2)NC(=O)Cc2ccccc2)C(N)=O)C(=O)NCC(N)=O)NC(=O)[C@H](CC(N)=O)NC(=O)[C@H](CC(N)=O)NC1=O` [Compound 59] (I: H-CFINNCP[Dab]G-NH2 / II: PhAc-[dY](Me)FQN[Dab]PR[isoGln][d(εLys)]; disulfide I:1-I:6; amide I:8-II:C), the Emax came to 26%.
On to `CC[C@H](C)[C@@H]1NC(=O)[C@H](Cc2ccccc2)NC(=O)[C@@H](N)CSSC[C@@H](C(=O)N2CCC[C@H]2C(=O)N[C@@H](CCNC(=O)[C@H](N)CCCCNC(=O)CC[C@H](NC(=O)[C@H](CCCNC(=N)N)NC(=O)[C@@H]2CCCN2C(=O)[C@H](C)NC(=O)[C@H](CC(N)=O)NC(=O)[C@H](CCC(N)=O)NC(=O)[C@H](Cc2ccccc2)NC(=O)[C@@H](Cc2ccc(OC)cc2)NC(=O)Cc2ccccc2)C(N)=O)C(=O)NCC(N)=O)NC(=O)[C@H](CC(N)=O)NC(=O)[C@H](CC(N)=O)NC1=O` [Compound 60] (I: H-CFINNCP[Dab]G-NH2 / II: PhAc-[dY](Me)FQNAPR[isoGln][d(εLys)]; disulfide I:1-I:6; amide I:8-II:C), for which the EC50 was 2.3 nM and the Emax worked out at 42%.
The corresponding values for `CC[C@H](C)[C@@H]1NC(=O)[C@H](Cc2ccccc2)NC(=O)[C@@H](N)CSSC[C@@H](C(=O)N2CCC[C@H]2C(=O)N[C@@H](CCNC(=O)[C@H](N)CCCCNC(=O)CC[C@H](NC(=O)[C@H](CCCNC(=N)N)NC(=O)[C@@H]2CCCN2C(=O)[C@H](CCC(N)=O)NC(=O)[C@H](CC(N)=O)NC(=O)[C@H](CCC(N)=O)NC(=O)[C@H](Cc2ccccc2)NC(=O)[C@@H](Cc2ccc(OC)cc2)NC(=O)Cc2ccccc2)C(N)=O)C(=O)NCC(N)=O)NC(=O)[C@H](CC(N)=O)NC(=O)[C@H](CCCC(N)=O)NC1=O` [Compound 61] (I: H-CFI[Aad](NH2)NCP[Dab]G-NH2 / II: PhAc-[dY](Me)FQNQPR[isoGln][d(εLys)]; disulfide I:1-I:6; amide I:8-II:C) are 2.5 nM and 38%.
On the same counts, the results for `CC[C@H](C)[C@@H]1NC(=O)[C@H](Cc2ccccc2)NC(=O)[C@@H](N)CSSC[C@@H](C(=O)N2CCC[C@H]2C(=O)N[C@@H](CCNC(=O)[C@H](N)CCCCNC(=O)CC[C@@H](NC(=O)[C@H](CCCNC(=N)N)NC(=O)[C@@H]2CCCN2C(=O)[C@H](C)NC(=O)[C@H](CC(N)=O)NC(=O)[C@H](CCC(N)=O)NC(=O)[C@H](Cc2ccccc2)NC(=O)[C@@H](Cc2ccc(OC)cc2)NC(=O)Cc2ccccc2)C(N)=O)C(=O)NCC(N)=O)NC(=O)[C@H](CC(N)=O)NC(=O)[C@H](CCCC(N)=O)NC1=O` [Compound 62] (I: H-CFI[Aad](NH2)NCP[Dab]G-NH2 / II: PhAc-[dY](Me)FQNAPR[d(isoGln)][d(εLys)]; disulfide I:1-I:6; amide I:8-II:C) are 2.5 nM and 31%.
As to `CC[C@H](C)[C@@H]1NC(=O)[C@H](Cc2ccccc2)NC(=O)[C@@H](N)CSSC[C@@H](C(=O)N2CCC[C@H]2C(=O)N[C@@H](CCNC(=O)[C@@H](N)CCC(=O)NCCCC[C@H](NC(=O)[C@H](CCCNC(=N)N)NC(=O)[C@@H]2CCCN2C(=O)[C@H](C)NC(=O)[C@H](CC(N)=O)NC(=O)[C@H](CCC(N)=O)NC(=O)[C@H](Cc2ccccc2)NC(=O)[C@@H](Cc2ccc(OC)cc2)NC(=O)Cc2ccccc2)C(N)=O)C(=O)NCC(N)=O)NC(=O)[C@H](CC(N)=O)NC(=O)[C@H](CC(N)=O)NC1=O` [Compound 63] (I: H-CFINNCP[Dab]G-NH2 / II: PhAc-[dY](Me)FQNAPRK-NH2; disulfide I:1-I:6; linker I:8-II:8 via X1), the EC50 came out at 1.1 nM and the Emax came out at 36%.
Take `CC[C@H](C)[C@@H]1NC(=O)[C@H](Cc2ccccc2)NC(=O)[C@@H](N)CSSC[C@@H](C(=O)N2CCC[C@H]2C(=O)N[C@@H](CCNC(=O)[C@@H](N)CCC(=O)NCCCC[C@H](NC(=O)[C@H](CCCNC(=N)N)NC(=O)[C@@H]2CCCN2C(=O)[C@H](C)NC(=O)[C@H](CC(N)=O)NC(=O)[C@H](CCC(N)=O)NC(=O)[C@H](Cc2ccccc2)NC(=O)[C@@H](Cc2ccc(OC)cc2)NC(=O)Cc2ccccc2)C(N)=O)C(=O)NCC(N)=O)NC(=O)[C@H](CC(N)=O)NC(=O)[C@H](CCCC(N)=O)NC1=O` [Compound 64] (I: H-CFI[Aad](NH2)NCP[Dab]G-NH2 / II: PhAc-[dY](Me)FQNAPRK-NH2; disulfide I:1-I:6; linker I:8-II:8 via X1): the concentration giving a half-maximal response (EC50) is 2.9 nM and the Emax is 42%.
On to `CC[C@H](C)[C@@H]1NC(=O)[C@H](Cc2ccccc2)NC(=O)[C@@H](N)CSSC[C@@H](C(=O)N2CCC[C@H]2C(=O)N[C@@H](CCNC(=O)[C@H](N)CCC(=O)NCCCC[C@H](NC(=O)[C@H](CCCNC(=N)N)NC(=O)[C@@H]2CCCN2C(=O)[C@H](C)NC(=O)[C@H](CC(N)=O)NC(=O)[C@H](CCC(N)=O)NC(=O)[C@H](Cc2ccccc2)NC(=O)[C@@H](Cc2ccc(OC)cc2)NC(=O)Cc2ccccc2)C(N)=O)C(=O)NCC(N)=O)NC(=O)[C@H](CC(N)=O)NC(=O)[C@H](CCCC(N)=O)NC1=O` [Compound 65] (I: H-CFI[Aad](NH2)NCP[Dab]G-NH2 / II: PhAc-[dY](Me)FQNAPRK-NH2; disulfide I:1-I:6; linker I:8-II:8 via X4), for which the EC50 was 4.5 nM and the Emax came out at 31%.
Consider `CC[C@H](C)[C@@H]1NC(=O)[C@H](Cc2ccccc2)NC(=O)[C@@H](N)CSSC[C@@H](C(=O)N2CCC[C@H]2C(=O)N[C@@H](CCNC(=O)[C@H](N)CCC(=O)NCCCC[C@H](NC(=O)[C@H](CCCNC(=N)N)NC(=O)[C@@H]2CCCN2C(=O)[C@H](C)NC(=O)[C@H](CC(N)=O)NC(=O)[C@H](CCC(N)=O)NC(=O)[C@H](Cc2ccccc2)NC(=O)[C@@H](Cc2ccc(OC)cc2)NC(=O)Cc2ccccc2)C(N)=O)C(=O)NCC(N)=O)NC(=O)[C@H](CC(N)=O)NC(=O)[C@H](CC(N)=O)NC1=O` [Compound 66] (I: H-CFINNCP[Dab]G-NH2 / II: PhAc-[dY](Me)FQNAPRK-NH2; disulfide I:1-I:6; linker I:8-II:8 via X4), for which the EC50 stood at 2.3 nM and the Emax amounted to 30%.

Source of the values: patent US20160122386A1, “V1A RECEPTOR AGONISTS” (FERRING B.V., priority 2014, published 2016).
